Reference: patent US20250353853A1, “FLAVIVIRUS INHIBITORS” (IRBM S.P.A., priority 2022, published 2025)
pEC50, pIC50: −log10 of the molar value. Counter-ions that a name gives are not always drawn. Like-named read-outs stand apart in the source and are kept apart here.

Tests used:
[1] = target: West Nile Virus (WNV) NS2B-NS3 protease (West Nile virus (WNV), UniProt P06935); assay: WNV Protease Inhibition Assay; format: biochemical
From the text: WNV Protease Inhibition Assay

[2] = tested on: ZIKV replicon in Vero cells; assay: ZIKV Replication Inhibition Assay (replicon, NanoLuc); details: Zika virus, Vero, 72 h, read-out: Zika Replicon EC50
[3] = 2 nM protease, 10 μM pERTKR-AMC substrate, read-out: WNV Protease IC50

Chain of West Nile Virus (WNV) NS2B-NS3 protease (P06935 1502-1679 limits assumed): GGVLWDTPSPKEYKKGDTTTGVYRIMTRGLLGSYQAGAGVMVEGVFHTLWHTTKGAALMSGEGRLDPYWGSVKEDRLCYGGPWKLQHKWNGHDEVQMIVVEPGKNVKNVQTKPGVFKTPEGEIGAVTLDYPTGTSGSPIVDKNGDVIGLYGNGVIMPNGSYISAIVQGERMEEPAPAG
Chain of West Nile Virus (WNV) NS2B-NS3 protease (P06935 1371-1501 partner limits assumed): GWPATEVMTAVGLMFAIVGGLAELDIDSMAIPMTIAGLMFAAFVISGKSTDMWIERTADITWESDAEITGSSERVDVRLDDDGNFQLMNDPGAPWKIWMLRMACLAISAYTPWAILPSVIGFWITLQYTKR

Structure (SMILES)	pIC50 [1, 3]	pEC50 [2]	pIC50 [1]	pIC50 ([1]; read-out: WNV Protease IC50, 2 nM protease, 10 μM pERTKR-AMC substrate)
O=C([N-]c1c[n+](Cc2ccc(Br)cc2)no1)Nc1cccc(C(F)(F)F)c1 [Example 19, (3-(4-bromobenzyl)-1,2,3-oxadiazol-3-ium-5-yl)((3-(trifluoromethyl)phenyl)carbamoyl)amide]	> 7.00	6.00 to 7.00		
O=C([N-]c1c[n+](Cc2ccc(-c3cccnc3)cc2)no1)Nc1cccc(C(F)(F)F)c1 [Example 22, (3-(4-(pyridin-3-yl)benzyl)-1,2,3-oxadiazol-3-ium-5-yl)((3-(trifluoromethyl)phenyl)carbamoyl)amide]		6.00 to 7.00	6.00 to 7.00	
Cn1cc(-c2ccc(C[n+]3cc([N-]C(=O)Nc4cccc(C(F)(F)F)c4)on3)cc2)cn1 [Example 23, (3-(4-(1-methyl-1H-pyrazol-4-yl)benzyl)-1,2,3-oxadiazol-3-ium-5-yl)((3-(trifluoromethyl)phenyl)carbamoyl)amide]		6.00 to 7.00	6.00 to 7.00	
O=C([N-]c1c[n+](Cc2ccc(-c3cncnc3)cc2)no1)Nc1cccc(C(F)(F)F)c1 [Example 26, (3-(4-(Pyrimidin-5-yl)benzyl)-1,2,3-oxadiazol-3-ium-5-yl)((3-(trifluoromethyl)phenyl)carbamoyl)amide]		6.00 to 7.00	6.00 to 7.00	
O=C([N-]c1c[n+](Cc2ccc(-c3ccncc3)cc2)no1)Nc1cccc(C(F)(F)F)c1 [Example 39, (3-(4-(pyridin-4-yl)benzyl)-1,2,3-oxadiazol-3-ium-5-yl)((3-(trifluoromethyl)phenyl)carbamoyl)amide]		6.00 to 7.00	6.00 to 7.00	
O=C([N-]c1c[n+]([C@@H](Cc2ccccc2)CN2CCCC2)no1)Nc1cccc(C(F)(F)F)c1 [Example 40, (S)-(3-(1-phenyl-3-(pyrrolidin-1-yl)propan-2-yl)-1,2,3-oxadiazol-3-ium-5-yl)((3-(trifluoromethyl)phenyl)carbamoyl)amide]		4.70 to 6.00	4.70 to 6.00	
COc1ncc(-c2ccc(C[n+]3cc([N-]C(=O)Nc4cccc(C(F)(F)F)c4)on3)cc2)cn1 [Example 41, (3-(4-(2-methoxypyrimidin-5-yl)benzyl)-1,2,3-oxadiazol-3-ium-5-yl)((3-(trifluoromethyl)phenyl)carbamoyl)amide]	> 7.00	6.00 to 7.00		
O=C([N-]c1c[n+](Cc2ccc(-c3cnccn3)cc2)no1)Nc1cccc(C(F)(F)F)c1 [Example 42, (3-(4-(pyrazin-2-yl)benzyl)-1,2,3-oxadiazol-3-ium-5-yl)((3-(trifluoromethyl)phenyl)carbamoyl)amide]		6.00 to 7.00	6.00 to 7.00	
O=C([N-]c1c[n+](C(c2ccccc2)C(F)(F)F)no1)Nc1cccc(C(F)(F)F)c1 (centres unmarked) [Example 44, (3-(2,2,2-trifluoro-1-phenylethyl)-1,2,3-oxadiazol-3-ium-5-yl)((3-(trifluoromethyl)phenyl)carbamoyl)amide]		< 4.70	4.70 to 6.00	
O=C([N-]c1c[n+]([C@@H](CO)Cc2ccccc2)no1)Nc1cccc(C(F)(F)F)c1 [Example 45]				4.70 to 6.00
O=C([N-]c1c[n+](Cc2cccc(Br)c2)no1)Nc1cccc(C(F)(F)F)c1 [Example 46, (3-(3-bromobenzyl)-1,2,3-oxadiazol-3-ium-5-yl)((3-(trifluoromethyl)phenyl)carbamoyl)amide]		4.70 to 6.00	6.00 to 7.00	
O=C([N-]c1c[n+](Cc2ccc(I)cc2)no1)Nc1cccc(C(F)(F)F)c1 [Example 47, (3-(4-iodobenzyl)-1,2,3-oxadiazol-3-ium-5-yl)((3-(trifluoromethyl)phenyl)carbamoyl)amide]		6.00 to 7.00	6.00 to 7.00	
O=C([N-]c1c[n+](Cc2ccc(-c3cnoc3)cc2)no1)Nc1cccc(C(F)(F)F)c1 [Example 48, (3-(4-(isoxazol-4-yl)benzyl)-1,2,3-oxadiazol-3-ium-5-yl)((3-(trifluoromethyl)phenyl)carbamoyl)amide]		6.00 to 7.00	6.00 to 7.00	
O=C([N-]c1c[n+](Cc2cccc(-c3cncnc3)c2)no1)Nc1cccc(C(F)(F)F)c1 [Example 50, (3-(3-(Pyrimidin-5-yl)benzyl)-1,2,3-oxadiazol-3-ium-5-yl)((3-(trifluoromethyl)phenyl)carbamoyl)amide]		6.00 to 7.00	6.00 to 7.00	
O=C([N-]c1c[n+](Cc2cccc(-c3cccnc3)c2)no1)Nc1cccc(C(F)(F)F)c1 [Example 51, (3-(3-(pyridin-3-yl)benzyl)-1,2,3-oxadiazol-3-ium-5-yl)((3-(trifluoromethyl)phenyl)carbamoyl)amide]		6.00 to 7.00	6.00 to 7.00	
Cn1cc(-c2cccc(C[n+]3cc([N-]C(=O)Nc4cccc(C(F)(F)F)c4)on3)c2)cn1 [Example 52, (3-(3-(1-methyl-1H-pyrazol-4-yl)benzyl)-1,2,3-oxadiazol-3-ium-5-yl)((3-(trifluoromethyl)phenyl)carbamoyl)amide]		6.00 to 7.00	6.00 to 7.00	

Structure (SMILES)	pIC50 [1, 3]	pEC50 [2]	pIC50 [1]	pIC50 ([1]; read-out: WNV Protease IC50, 2 nM protease, 10 μM pERTKR-AMC substrate)
COc1ncc(-c2cccc(C[n+]3cc([N-]C(=O)Nc4cccc(C(F)(F)F)c4)on3)c2)cn1 [Example 53, (3-(3-(2-methoxypyrimidin-5-yl)benzyl)-1,2,3-oxadiazol-3-ium-5-yl)((3-(trifluoromethyl)phenyl)carbamoyl)amide]		6.00 to 7.00	6.00 to 7.00	
COc1ncc(-c2ccc(C[n+]3cc([N-]C(=O)Nc4cccc(C#N)c4)on3)cc2)c(C)n1 [Example 114, ((3-cyanophenyl)carbamoyl)(3-(4-(2-methoxy-4-methylpyrimidin-5-yl)benzyl)-1,2,3-oxadiazol-3-ium-5-yl)amide]		4.70 to 6.00		
COc1ncc(-c2ccc(C[n+]3cc([N-]C(=O)Nc4ccccc4)on3)cc2)c(C)n1 [Example 115, (3-(4-(2-methoxy-4-methylpyrimidin-5-yl)benzyl)-1,2,3-oxadiazol-3-ium-5-yl)(phenylcarbamoyl)amide]		4.70 to 6.00		
Cc1noc(C)c1-c1ccc([C@@H](CN)[n+]2cc([N-]C(=O)Nc3cccc(C(F)(F)F)c3)on2)cc1 [Example 116, (S)-(3-(2-amino-1-(4-(3,5-dimethylisoxazol-4-yl)phenyl)ethyl)-1,2,3-oxadiazol-3-ium-5-yl)((3-(trifluoromethyl)phenyl)carbamoyl)amide formate]		6.00 to 7.00		
O=C([N-]c1c[n+](Cc2ccc(-c3cnn(C4CCNCC4)c3)nc2)no1)Nc1cccc(C(F)(F)F)c1 [Example 117, (3-((6-(1-(piperidin-4-yl)-1H-pyrazol-4-yl)pyridin-3-yl)methyl)-1,2,3-oxadiazol-3-ium-5-yl)((3-(trifluoromethyl)phenyl)carbamoyl)amide]		4.70 to 6.00		
Cc1ncn(C)c1-c1ccc(C[n+]2cc([N-]C(=O)Nc3cccc(C(F)(F)F)c3)on2)nc1 [Example 118, (3-((5-(1,4-dimethyl-1H-imidazol-5-yl)pyridin-2-yl)methyl)-1,2,3-oxadiazol-3-ium-5-yl)((3-(trifluoromethyl)phenyl)carbamoyl)amide]		6.00 to 7.00		
O=C([N-]c1c[n+](Cc2ccc(-c3cccc4c3CNC4)cn2)no1)Nc1cccc(C(F)(F)F)c1 [Example 119, (3-((5-(isoindolin-4-yl)pyridin-2-yl)methyl)-1,2,3-oxadiazol-3-ium-5-yl)((3-(trifluoromethyl)phenyl)carbamoyl)amide]		6.00 to 7.00		
O=C([N-]c1c[n+](Cc2ccc(-c3cnn(C4CCNCC4)c3)cn2)no1)Nc1cccc(C(F)(F)F)c1 [Example 120, (3-((5-(1-(piperidin-4-yl)-1H-pyrazol-4-yl)pyridin-2-yl)methyl)-1,2,3-oxadiazol-3-ium-5-yl)((3-(trifluoromethyl)phenyl)carbamoyl)amide]		4.70 to 6.00		
NCc1ccccc1-c1ccc(C[n+]2cc([N-]C(=O)Nc3cccc(C(F)(F)F)c3)on2)nc1 [Example 121, (3-((5-(2-(aminomethyl)phenyl)pyridin-2-yl)methyl)-1,2,3-oxadiazol-3-ium-5-yl)((3-(trifluoromethyl)phenyl)carbamoyl)amide]		6.00 to 7.00		
O=C([N-]c1c[n+](Cc2ccc(B(O)O)cn2)no1)Nc1cccc(C(F)(F)F)c1 [Example 122, (3-((5-boronopyridin-2-yl)methyl)-1,2,3-oxadiazol-3-ium-5-yl)((3-(trifluoromethyl)phenyl)carbamoyl)amide]		< 4.70		
Cc1ncnc(OCCN(C)C)c1-c1ccc(C[n+]2cc([N-]C(=O)Nc3cccc(C(F)(F)F)c3)on2)nc1 [Example 123, ((3-((5-(4-(2-(metheyliumyl(methyl)ammonio)ethoxy)-6-methylpyrimidin-5-yl)pyridin-2-yl)methyl)-1,2,3-oxadiazol-3-ium-5-yl)((3-(trifluoromethyl)phenyl)carbamoyl)amide) (2,2,2-trifluoroacetate)]		6.00 to 7.00		
O=C([N-]c1c[n+](Cc2ccc(-c3cnn4c3CNCC4)cn2)no1)Nc1cccc(C(F)(F)F)c1 [Example 124, (3-((5-(4,5,6,7-tetrahydropyrazolo[1,5-a]pyrazin-3-yl)pyridin-2-yl)methyl)-1,2,3-oxadiazol-3-ium-5-yl)((3-(trifluoromethyl)phenyl)carbamoyl)amide]		6.00 to 7.00		
Cc1noc(C)c1-c1cnc(C[n+]2cc([N-]C(=O)Nc3cccc(C(F)(F)F)c3)on2)cn1 [Example 169, (3-((5-(3,5-dimethylisoxazol-4-yl)pyrazin-2-yl)methyl)-1,2,3-oxadiazol-3-ium-5-yl)((3-(trifluoromethyl)phenyl)carbamoyl)amide]		6.00 to 7.00		
Cc1noc(C)c1-c1ccc(C[n+]2cc([N-]C(=O)Nc3nccc(C(F)(F)F)n3)on2)nc1 [Example 171, (3-((5-(3,5-dimethylisoxazol-4-yl)pyridin-2-yl)methyl)-1,2,3-oxadiazol-3-ium-5-yl)((4-(trifluoromethyl)pyrimidin-2-yl)carbamoyl)amide]		4.70 to 6.00		
Cc1noc(C)c1-c1ncc(C[n+]2cc([N-]C(=O)Nc3cccc(C(F)(F)F)c3)on2)cn1 [Example 174, (3-((2-(3,5-dimethylisoxazol-4-yl)pyrimidin-5-yl)methyl)-1,2,3-oxadiazol-3-ium-5-yl)((3-(trifluoromethyl)phenyl)carbamoyl)amide]		6.00 to 7.00		
